In brackets after ≈: the same amount, converted by molar mass. Where only a bound is given, the exact number is not on record here.

Data set [1] addresses T1, Cytochrome P450 3A4 (Homo sapiens, UniProt P08684). The data set is described as follows: Time-dependent inhibition of CYP3A4 (unknown origin). The data set is classed as ADME.
A short description of data set [2]: Intrinsic clearance in human liver microsomes at 1 uM preincubated for 1 hr followed by NADPH addition and measured by LC/MS/MS analysis. The class given is ADME, Microsome. The note with it: read-out: CLH.
Data set [3] is described as follows: Intrinsic clearance in rat hepatocytes assessed per million cells at 1 uM preincubated for 1 hr followed by NADPH addition and measured by LC/MS/MS analysis. The data set is classed as ADME, cell-based, Hepatocyte. The note with it: read-out: CLH.
The target of data set [4] is T1, Cytochrome P450 3A4. As to the kind of experiment: Inhibition of CYP3A4 (unknown origin). The class given is ADME.
Data set [5] deals with T2, Tyrosine-protein kinase BTK (Homo sapiens, UniProt Q06187). The data set is described as follows: Inhibition of BTK in goat F(ab')2 anti-human IgM-stimulated human whole blood assessed as suppression of CD69 expression on B cells pretreated for 30 mins followed by goat F(ab')2 anti-human IgM-stimulation and measured after 20 hrs by flow cytometry. The class given is tissue-based.

Data set [6] is described as follows: Solubility of the compound by LYSA. The data set is classed as physicochemical.
Data set [7] is described as follows: Intrinsic clearance in rat liver microsomes at 1 uM preincubated for 1 hr followed by NADPH addition and measured by LC/MS/MS analysis. To be noted: read-out: CLH. The data set is classed as ADME, Microsome.
In data set [8] the target is Cytochrome P450 2C9 (Homo sapiens, UniProt P11712). The data set is described as follows: Inhibition of CYP2C9 (unknown origin). The class given is ADME.
Data set [9] deals with T2, Tyrosine-protein kinase BTK. As to the kind of experiment: Inhibition of Kinase Tracer 178 binding to biotinylated-BTK (unknown origin) measured after 18 to 24 hrs by Europium-labeled Streptavidin conjugate based TR-FRET assay.
Data set [10] is described as follows: Intrinsic clearance in human hepatocytes assessed per million cells at 1 uM preincubated for 1 hr followed by NADPH addition and measured by LC/MS/MS analysis. To be noted: read-out: CLH. The class given is ADME, cell-based, Hepatocyte.
Data set [11] addresses Cytochrome P450 2D6 (Homo sapiens, UniProt P10635). As to the kind of experiment: Inhibition of CYP2D6 (unknown origin). The data set is classed as ADME.

T1 sequence (P08684 whole entry): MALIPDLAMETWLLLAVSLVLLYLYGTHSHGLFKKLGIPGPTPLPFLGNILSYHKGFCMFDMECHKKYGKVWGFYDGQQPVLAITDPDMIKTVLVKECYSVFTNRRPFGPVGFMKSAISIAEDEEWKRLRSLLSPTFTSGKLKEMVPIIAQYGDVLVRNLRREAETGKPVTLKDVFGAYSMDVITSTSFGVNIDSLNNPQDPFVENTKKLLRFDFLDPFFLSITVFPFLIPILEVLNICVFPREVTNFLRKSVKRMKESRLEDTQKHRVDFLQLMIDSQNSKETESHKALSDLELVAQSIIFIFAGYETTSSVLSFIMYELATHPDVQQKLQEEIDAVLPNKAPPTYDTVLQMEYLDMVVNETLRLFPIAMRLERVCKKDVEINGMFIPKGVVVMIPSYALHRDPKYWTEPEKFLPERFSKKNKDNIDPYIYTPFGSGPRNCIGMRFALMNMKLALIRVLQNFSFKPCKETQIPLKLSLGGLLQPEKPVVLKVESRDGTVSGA
T2 sequence (Q06187 whole entry): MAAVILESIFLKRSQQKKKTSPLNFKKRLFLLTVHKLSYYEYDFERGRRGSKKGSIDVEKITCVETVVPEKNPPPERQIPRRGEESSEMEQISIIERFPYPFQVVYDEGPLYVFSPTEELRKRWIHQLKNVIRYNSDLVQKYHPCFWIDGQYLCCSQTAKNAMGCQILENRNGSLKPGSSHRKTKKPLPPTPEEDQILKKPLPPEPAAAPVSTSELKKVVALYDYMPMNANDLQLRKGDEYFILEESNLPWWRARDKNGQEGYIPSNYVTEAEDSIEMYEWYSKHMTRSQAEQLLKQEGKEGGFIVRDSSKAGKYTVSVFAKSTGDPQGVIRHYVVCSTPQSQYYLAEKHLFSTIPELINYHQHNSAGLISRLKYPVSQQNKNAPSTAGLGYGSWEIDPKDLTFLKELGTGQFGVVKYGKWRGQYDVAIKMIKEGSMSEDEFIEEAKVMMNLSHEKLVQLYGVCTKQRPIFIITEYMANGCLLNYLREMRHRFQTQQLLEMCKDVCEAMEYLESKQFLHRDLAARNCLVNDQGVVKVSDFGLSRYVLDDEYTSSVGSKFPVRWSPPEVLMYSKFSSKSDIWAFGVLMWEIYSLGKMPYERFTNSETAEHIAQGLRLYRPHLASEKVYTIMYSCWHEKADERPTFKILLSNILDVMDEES
Sequence of Cytochrome P450 2D6 (P10635 whole entry): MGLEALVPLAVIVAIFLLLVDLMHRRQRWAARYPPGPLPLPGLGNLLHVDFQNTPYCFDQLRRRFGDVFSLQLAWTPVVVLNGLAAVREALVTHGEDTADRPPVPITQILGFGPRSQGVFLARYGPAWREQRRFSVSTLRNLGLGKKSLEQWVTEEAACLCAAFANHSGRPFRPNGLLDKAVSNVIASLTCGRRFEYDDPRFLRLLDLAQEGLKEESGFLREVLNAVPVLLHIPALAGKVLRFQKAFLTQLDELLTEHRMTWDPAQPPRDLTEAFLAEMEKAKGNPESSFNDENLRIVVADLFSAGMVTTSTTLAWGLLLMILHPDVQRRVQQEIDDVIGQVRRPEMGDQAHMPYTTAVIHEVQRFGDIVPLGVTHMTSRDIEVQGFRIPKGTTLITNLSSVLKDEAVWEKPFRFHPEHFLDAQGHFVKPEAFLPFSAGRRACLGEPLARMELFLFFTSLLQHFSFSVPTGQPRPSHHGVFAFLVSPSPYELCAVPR
Sequence of Cytochrome P450 2C9 (P11712 whole entry): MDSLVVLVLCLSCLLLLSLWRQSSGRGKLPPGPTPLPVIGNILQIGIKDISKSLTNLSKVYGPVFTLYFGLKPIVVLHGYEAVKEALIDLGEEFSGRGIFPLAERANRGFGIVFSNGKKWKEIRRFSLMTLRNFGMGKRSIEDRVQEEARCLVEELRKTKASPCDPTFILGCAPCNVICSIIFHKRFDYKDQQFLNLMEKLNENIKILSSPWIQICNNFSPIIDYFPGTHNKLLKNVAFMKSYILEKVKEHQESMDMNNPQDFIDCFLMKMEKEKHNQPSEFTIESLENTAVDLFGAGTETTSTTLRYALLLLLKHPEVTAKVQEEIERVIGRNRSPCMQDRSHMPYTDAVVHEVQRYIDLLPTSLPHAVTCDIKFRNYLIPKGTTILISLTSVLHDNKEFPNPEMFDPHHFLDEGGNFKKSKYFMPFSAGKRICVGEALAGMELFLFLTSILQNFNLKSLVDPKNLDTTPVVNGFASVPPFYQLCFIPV

In [1], `Cn1nc(-c2cccc(-n3ncc4cc(C(C)(C)C)cc(F)c4c3=O)c2CO)cc(Nc2ccc(C(=O)N3CCOCC3)cn2)c1=O` displayed a TDI of 0%. The microsomal CLint at 1 µM is 20 µL/min/mg in data set [2] and 29 µL/min/mg in [7]. For the same molecule, the hepatocyte CLint at 1 µM in data set [3] amounted to 2 µL/min/1e6 cells; in [10] it was 0.3 µL/min/1e6 cells. Moreover, the INH in data set [4], in data set [8] and in data set [11] was more than 10 µM in each case. Moreover, the half-inhibitory concentration (IC50) in data set [5] is 23 nM; in [9] it was less than 1 nM. In addition, the concentration in solution in data set [6] (solubility) was 1.1 µg/mL (≈ 1.72 µM).

Consider `Cn1c2c(cc(Nc3ccc(C(=O)N4CCOCC4)cn3)c1=O)-c1cccc(-n3ncc4cc(C(C)(C)C)cc(F)c4c3=O)c1C[C@H](O)C2`, for which, in data set [1], the TDI result was “Not Active”.

`Cn1c2c(cc(Nc3ccc(C(=O)N4CCOCC4)cn3)c1=O)-c1cccc(-n3ncc4cc(C(C)(C)C)cc(F)c4c3=O)c1CC(O)C2` (racemic): the TDI in [1] is recorded as 0%. Besides, the microsomal CLint at 1 µM in data set [2] came out at 29 µL/min/mg; in data set [7], 19 µL/min/mg. The hepatocyte CLint at 1 µM in [3] stood at 3.3 µL/min/1e6 cells; in data set [10], 0.3 µL/min/1e6 cells. The INH in data set [4], in data set [8] and in data set [11] was more than 7 µM throughout. Moreover, the solubility in data set [6] was found to be 1 µg/mL (≈ 1.5 µM).
